Experimental data as given in ChEMBL document CHEMBL4507318, “Data for DCP probe BAY-985” (2021).

What was measured:
[1] = target: 5'-AMP-activated protein kinase catalytic subunit alpha-1 (Homo sapiens) (UniProt Q13131)
[2] = target: Aurora kinase B (Homo sapiens) (UniProt Q96GD4)
[3] = target: Calcium/calmodulin-dependent protein kinase type 1B (Homo sapiens) (UniProt Q6P2M8)
[4] = target: Calcium/calmodulin-dependent protein kinase type 1G (Homo sapiens) (UniProt Q96NX5)
[5] = target: Calcium/calmodulin-dependent protein kinase kinase 1 (Homo sapiens) (UniProt Q8N5S9)
[6] = target: Cyclin-dependent kinase 4 (Homo sapiens) (UniProt P11802)
Sequence of Cyclin-dependent kinase 4 (Homo sapiens) (P11802 whole entry): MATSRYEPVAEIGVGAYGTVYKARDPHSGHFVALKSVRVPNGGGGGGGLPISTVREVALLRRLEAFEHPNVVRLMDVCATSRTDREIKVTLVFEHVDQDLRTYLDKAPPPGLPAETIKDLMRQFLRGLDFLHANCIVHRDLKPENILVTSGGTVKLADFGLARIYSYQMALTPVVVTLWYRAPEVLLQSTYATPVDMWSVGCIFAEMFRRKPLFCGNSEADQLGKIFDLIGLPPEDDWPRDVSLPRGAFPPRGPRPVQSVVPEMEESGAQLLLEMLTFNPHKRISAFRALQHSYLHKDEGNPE

[7] = target: Serine/threonine-protein kinase DCLK1 (Homo sapiens) (UniProt O15075)
[8] = target: Myotonin-protein kinase (Homo sapiens) (UniProt Q09013)
[9] = tested on: Epidermal growth factor receptor (Homo sapiens), P00533 [UNDEFINED MUTATION]
[10] = tested on: Epidermal growth factor receptor (Homo sapiens), P00533 [T790M]
[11] = target: Ephrin type-A receptor 1 (Homo sapiens) (UniProt P21709)
Sequence of Ephrin type-A receptor 1 (Homo sapiens) (P21709 whole entry): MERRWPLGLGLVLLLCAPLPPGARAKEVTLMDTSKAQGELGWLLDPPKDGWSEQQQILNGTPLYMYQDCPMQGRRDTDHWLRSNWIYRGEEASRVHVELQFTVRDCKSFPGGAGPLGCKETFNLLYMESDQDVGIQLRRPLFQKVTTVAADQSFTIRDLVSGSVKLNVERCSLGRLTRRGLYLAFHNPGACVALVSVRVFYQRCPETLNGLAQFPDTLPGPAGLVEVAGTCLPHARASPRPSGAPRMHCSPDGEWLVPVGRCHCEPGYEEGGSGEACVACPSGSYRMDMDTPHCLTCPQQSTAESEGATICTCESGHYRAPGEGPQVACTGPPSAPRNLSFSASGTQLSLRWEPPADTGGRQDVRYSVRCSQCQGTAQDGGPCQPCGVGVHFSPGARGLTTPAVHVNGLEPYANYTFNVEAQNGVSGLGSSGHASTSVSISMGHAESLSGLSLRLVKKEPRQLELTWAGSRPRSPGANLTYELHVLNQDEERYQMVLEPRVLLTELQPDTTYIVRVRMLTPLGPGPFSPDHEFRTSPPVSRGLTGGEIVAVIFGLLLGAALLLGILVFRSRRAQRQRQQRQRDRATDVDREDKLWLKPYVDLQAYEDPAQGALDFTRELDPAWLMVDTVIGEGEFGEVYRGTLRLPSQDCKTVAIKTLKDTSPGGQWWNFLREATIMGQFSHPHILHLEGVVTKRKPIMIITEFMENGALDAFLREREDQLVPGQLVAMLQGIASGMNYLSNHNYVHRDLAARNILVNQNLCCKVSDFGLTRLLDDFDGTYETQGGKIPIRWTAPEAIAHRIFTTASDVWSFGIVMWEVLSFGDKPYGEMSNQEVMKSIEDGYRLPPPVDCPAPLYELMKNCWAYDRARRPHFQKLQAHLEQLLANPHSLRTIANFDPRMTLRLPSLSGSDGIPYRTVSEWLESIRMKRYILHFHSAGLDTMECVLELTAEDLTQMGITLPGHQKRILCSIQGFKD

[12] = target: Ephrin type-A receptor 5 (Homo sapiens) (UniProt P54756)
[13] = target: Ephrin type-B receptor 1 (Homo sapiens) (UniProt P54762)
[14] = target: Ephrin type-B receptor 6 (Homo sapiens) (UniProt O15197)
[15] = target: Serine/threonine-protein kinase/endoribonuclease IRE1 (Homo sapiens) (UniProt O75460)
[16] = target: Focal adhesion kinase 1 (Homo sapiens) (UniProt Q05397)
Sequence of Focal adhesion kinase 1 (Homo sapiens) (Q05397 2-1052 limits assumed): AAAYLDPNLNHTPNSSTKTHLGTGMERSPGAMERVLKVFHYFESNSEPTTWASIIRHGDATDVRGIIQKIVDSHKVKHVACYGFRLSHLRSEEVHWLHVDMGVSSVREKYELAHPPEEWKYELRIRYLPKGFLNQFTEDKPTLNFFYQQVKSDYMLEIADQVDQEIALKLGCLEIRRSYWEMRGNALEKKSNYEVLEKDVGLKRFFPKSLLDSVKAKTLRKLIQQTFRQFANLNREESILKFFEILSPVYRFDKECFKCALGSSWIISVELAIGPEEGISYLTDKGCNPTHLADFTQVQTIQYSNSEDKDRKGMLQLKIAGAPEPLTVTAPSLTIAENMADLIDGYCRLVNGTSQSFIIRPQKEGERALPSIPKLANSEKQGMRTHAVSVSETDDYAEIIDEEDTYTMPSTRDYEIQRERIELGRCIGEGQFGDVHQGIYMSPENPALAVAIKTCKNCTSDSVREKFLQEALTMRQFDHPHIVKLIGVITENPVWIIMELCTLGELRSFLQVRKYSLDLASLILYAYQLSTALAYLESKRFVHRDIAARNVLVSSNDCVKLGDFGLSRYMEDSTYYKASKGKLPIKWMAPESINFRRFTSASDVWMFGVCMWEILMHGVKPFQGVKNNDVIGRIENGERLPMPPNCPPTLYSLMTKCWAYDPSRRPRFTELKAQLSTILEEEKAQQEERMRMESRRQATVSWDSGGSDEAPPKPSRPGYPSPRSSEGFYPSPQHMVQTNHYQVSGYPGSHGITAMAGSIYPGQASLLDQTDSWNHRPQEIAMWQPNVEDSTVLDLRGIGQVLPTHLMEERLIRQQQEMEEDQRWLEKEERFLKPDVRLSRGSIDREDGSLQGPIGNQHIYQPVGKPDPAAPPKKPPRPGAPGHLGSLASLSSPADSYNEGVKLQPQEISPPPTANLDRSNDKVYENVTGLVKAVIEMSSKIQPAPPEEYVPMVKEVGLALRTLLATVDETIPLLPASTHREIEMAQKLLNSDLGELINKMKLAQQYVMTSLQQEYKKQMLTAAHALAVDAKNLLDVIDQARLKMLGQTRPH

[17] = target: Fibroblast growth factor receptor 1 (Homo sapiens) (UniProt P11362)
[18] = tested on: Receptor-type tyrosine-protein kinase FLT3 (Homo sapiens), P36888 [D835H]
[19] = tested on: Receptor-type tyrosine-protein kinase FLT3 (Homo sapiens), P36888 [R834Q]
[20] = target: Rhodopsin kinase GRK1 (Homo sapiens) (UniProt Q15835)
[21] = target: Homeodomain-interacting protein kinase 2 (Homo sapiens) (UniProt Q9H2X6)
[22] = target: Inhibitor of nuclear factor kappa-B kinase subunit alpha (Homo sapiens) (UniProt O15111)
Sequence of Inhibitor of nuclear factor kappa-B kinase subunit alpha (Homo sapiens) (O15111 whole entry): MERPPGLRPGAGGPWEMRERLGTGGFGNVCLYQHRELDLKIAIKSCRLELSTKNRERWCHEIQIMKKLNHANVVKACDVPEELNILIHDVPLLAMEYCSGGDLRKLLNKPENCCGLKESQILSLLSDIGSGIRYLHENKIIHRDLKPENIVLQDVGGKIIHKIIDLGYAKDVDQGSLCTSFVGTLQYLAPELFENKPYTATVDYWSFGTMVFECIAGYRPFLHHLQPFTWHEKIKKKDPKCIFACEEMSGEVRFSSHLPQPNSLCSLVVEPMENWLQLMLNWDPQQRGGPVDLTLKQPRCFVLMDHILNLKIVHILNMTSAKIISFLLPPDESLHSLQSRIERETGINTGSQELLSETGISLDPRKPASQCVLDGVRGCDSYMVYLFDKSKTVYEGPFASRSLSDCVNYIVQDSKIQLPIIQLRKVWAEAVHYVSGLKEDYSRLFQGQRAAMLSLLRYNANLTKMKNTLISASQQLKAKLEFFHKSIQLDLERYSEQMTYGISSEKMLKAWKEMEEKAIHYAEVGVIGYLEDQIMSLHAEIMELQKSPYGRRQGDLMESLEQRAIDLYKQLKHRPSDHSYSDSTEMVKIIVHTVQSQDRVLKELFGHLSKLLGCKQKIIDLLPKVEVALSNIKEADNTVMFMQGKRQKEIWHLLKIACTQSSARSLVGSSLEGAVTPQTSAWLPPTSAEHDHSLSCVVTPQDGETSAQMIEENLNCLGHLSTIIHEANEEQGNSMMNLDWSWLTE

[23] = target: Interleukin-1 receptor-associated kinase 3 (Homo sapiens) (UniProt Q9Y616)
[24] = target: Tyrosine-protein kinase ITK/TSK (Homo sapiens) (UniProt Q08881)
[25] = tested on: Mast/stem cell growth factor receptor Kit (Homo sapiens), P10721 [D816H]
[26] = tested on: Mast/stem cell growth factor receptor Kit (Homo sapiens), P10721 [V559D,V654A]
[27] = target: Mitogen-activated protein kinase kinase kinase kinase 3 (Homo sapiens) (UniProt Q8IVH8)
[28] = target: MAP/microtubule affinity-regulating kinase 4 (Homo sapiens) (UniProt Q96L34)
[29] = target: Dual specificity mitogen-activated protein kinase kinase 7 (Homo sapiens) (UniProt O14733)
[30] = target: Serine/threonine-protein kinase PAK 4 (Homo sapiens) (UniProt O96013)
[31] = target: Phosphatidylinositol 4,5-bisphosphate 3-kinase catalytic subunit delta isoform (Homo sapiens) (UniProt O00329)
[32] = target: Phosphatidylinositol 4-phosphate 5-kinase type-1 gamma (Homo sapiens) (UniProt O60331)
Sequence of Phosphatidylinositol 4-phosphate 5-kinase type-1 gamma (Homo sapiens) (O60331 whole entry): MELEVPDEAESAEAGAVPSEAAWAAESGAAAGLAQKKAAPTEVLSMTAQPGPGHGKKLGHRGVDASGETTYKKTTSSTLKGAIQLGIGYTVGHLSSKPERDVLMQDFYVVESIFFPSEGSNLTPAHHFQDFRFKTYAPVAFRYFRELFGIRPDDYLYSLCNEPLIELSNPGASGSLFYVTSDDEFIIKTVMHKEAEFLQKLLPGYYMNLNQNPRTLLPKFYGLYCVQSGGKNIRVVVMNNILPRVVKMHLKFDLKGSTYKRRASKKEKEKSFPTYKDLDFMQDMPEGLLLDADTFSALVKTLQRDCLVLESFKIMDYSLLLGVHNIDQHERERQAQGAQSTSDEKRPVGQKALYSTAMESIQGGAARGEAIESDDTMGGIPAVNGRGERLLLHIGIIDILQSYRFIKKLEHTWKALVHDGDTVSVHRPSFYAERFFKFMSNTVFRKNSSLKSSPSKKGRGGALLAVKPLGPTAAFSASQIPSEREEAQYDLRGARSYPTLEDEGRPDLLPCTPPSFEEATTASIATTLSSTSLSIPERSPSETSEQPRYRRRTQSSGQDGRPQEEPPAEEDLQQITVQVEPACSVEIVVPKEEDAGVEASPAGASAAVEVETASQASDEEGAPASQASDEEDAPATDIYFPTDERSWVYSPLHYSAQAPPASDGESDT

[33] = target: Serine/threonine-protein kinase PLK2 (Homo sapiens) (UniProt Q9NYY3)
[34] = target: cGMP-dependent protein kinase 1 (Homo sapiens) (UniProt Q13976)
[35] = tested on: Proto-oncogene tyrosine-protein kinase receptor Ret (Homo sapiens), P07949 [V804M]
[36] = target: Serine/threonine-protein kinase RIO1 (Homo sapiens) (UniProt Q9BRS2)
[37] = target: Rho-associated protein kinase 1 (Homo sapiens) (UniProt Q13464)
[38] = target: Ribosomal protein S6 kinase alpha-3 (Homo sapiens) (UniProt P51812)
Sequence of Ribosomal protein S6 kinase alpha-3 (Homo sapiens) (P51812 whole entry): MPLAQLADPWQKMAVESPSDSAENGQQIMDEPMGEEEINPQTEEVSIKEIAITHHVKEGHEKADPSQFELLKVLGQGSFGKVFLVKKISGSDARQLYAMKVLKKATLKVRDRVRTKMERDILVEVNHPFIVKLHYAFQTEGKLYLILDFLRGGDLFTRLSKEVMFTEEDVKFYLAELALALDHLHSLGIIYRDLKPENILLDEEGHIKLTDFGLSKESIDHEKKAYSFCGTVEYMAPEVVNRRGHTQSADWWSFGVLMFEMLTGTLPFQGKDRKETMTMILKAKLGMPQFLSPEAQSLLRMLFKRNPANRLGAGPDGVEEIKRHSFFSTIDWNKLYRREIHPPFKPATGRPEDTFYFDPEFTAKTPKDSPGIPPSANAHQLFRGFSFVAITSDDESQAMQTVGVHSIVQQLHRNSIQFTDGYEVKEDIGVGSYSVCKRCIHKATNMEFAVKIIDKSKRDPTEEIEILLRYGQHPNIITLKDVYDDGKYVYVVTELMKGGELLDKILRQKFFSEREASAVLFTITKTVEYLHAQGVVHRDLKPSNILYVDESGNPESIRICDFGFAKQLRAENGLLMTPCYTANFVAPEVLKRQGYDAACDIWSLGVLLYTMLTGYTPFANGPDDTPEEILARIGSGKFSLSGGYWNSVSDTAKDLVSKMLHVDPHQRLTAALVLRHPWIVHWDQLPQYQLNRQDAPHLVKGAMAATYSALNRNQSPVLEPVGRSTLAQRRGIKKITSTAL

[39] = target: STE20-like serine/threonine-protein kinase (Homo sapiens) (UniProt Q9H2G2)
[40] = target: Activated CDC42 kinase 1 (Homo sapiens) (UniProt Q07912)
[41] = target: Serine/threonine-protein kinase WNK2 (Homo sapiens) (UniProt Q9Y3S1)
[42] = target: Serine/threonine-protein kinase WNK3 (Homo sapiens) (UniProt Q9BYP7)
[43] = target: Serine/threonine-protein kinase 32C (Homo sapiens) (UniProt Q86UX6)
[44] = target: Alpha-2C adrenergic receptor (Homo sapiens) (UniProt P18825); settings: Compound concentration 10.0 uM
[45] = target: Beta-1 adrenergic receptor (Homo sapiens) (UniProt P08588); settings: Compound concentration 10.0 uM
[46] = Compound concentration 1000.0 nM
[47] = Compound concentration 100.0 nM

Sequence of 5'-AMP-activated protein kinase catalytic subunit alpha-1 (Homo sapiens) (Q13131 whole entry, looked up): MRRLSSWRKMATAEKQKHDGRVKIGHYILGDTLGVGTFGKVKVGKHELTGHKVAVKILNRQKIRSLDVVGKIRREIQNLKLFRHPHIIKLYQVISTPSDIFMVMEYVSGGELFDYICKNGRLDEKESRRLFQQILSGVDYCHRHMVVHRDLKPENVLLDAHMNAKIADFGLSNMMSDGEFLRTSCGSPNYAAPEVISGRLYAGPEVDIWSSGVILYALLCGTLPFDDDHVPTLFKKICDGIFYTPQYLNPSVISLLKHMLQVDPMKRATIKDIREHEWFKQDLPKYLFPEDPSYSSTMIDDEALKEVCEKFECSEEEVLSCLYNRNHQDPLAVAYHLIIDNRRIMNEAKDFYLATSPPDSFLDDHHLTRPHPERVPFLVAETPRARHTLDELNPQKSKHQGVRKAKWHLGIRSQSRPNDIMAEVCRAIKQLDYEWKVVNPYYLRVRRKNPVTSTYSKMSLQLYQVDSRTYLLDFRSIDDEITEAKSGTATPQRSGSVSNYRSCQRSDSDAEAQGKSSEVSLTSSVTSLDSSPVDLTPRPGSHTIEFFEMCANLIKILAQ

CN(C)c1ncnc(-c2ccc3nc(Nc4cc(CN5CCN(C(=O)CC(F)(F)F)CC5)ccn4)[nH]c3c2)c1Cl [BAY-440]
residual activity [1, 46]: 100% | residual activity [2, 46]: 85% | residual activity [3, 46]: 72% | residual activity [4, 46]: 100% | residual activity [5, 46]: 100% | residual activity [6, 46]: 69% | residual activity [7, 46]: 92% | residual activity [8, 46]: 91% | residual activity [9, 46]: 88% | residual activity [10, 46]: 100% | residual activity [11, 46]: 100% | residual activity [12, 46]: 100% | residual activity [13, 46]: 97% | residual activity [14, 46]: 69% | residual activity [15, 46]: 62% | residual activity [16, 46]: 100% | residual activity [17, 46]: 100% | residual activity [18, 46]: 42% | residual activity [19, 46]: 77% | residual activity [20, 46]: 90% | residual activity [21, 46]: 86% | residual activity [22, 46]: 69% | residual activity [23, 46]: 97% | residual activity [24, 46]: 100% | residual activity [25, 46]: 75% | residual activity [26, 46]: 100% | residual activity [27, 46]: 74% | residual activity [28, 46]: 100% | residual activity [29, 46]: 100% | residual activity [30, 46]: 100% | residual activity [31, 46]: 67% | residual activity [32, 46]: 100% | residual activity [33, 46]: 100% | residual activity [34, 46]: 94% | residual activity [35, 46]: 93% | residual activity [36, 46]: 100% | residual activity [37, 46]: 100% | residual activity [38, 46]: 87% | residual activity [39, 46]: 100% | residual activity [40, 46]: 96% | residual activity [41, 46]: 59% | residual activity [42, 46]: 85% | residual activity [43, 46]: 100% | inhibition [44]: 7.09% | inhibition [45]: -6.2%

C[C@H](c1ccnc(Nc2nc3ccc(-c4cc(N(C)C)ncn4)cc3[nH]2)c1)N1CCN(C(=O)CC(F)(F)F)CC1 [BAY-985]
residual activity [1, 47]: 100% | residual activity [2, 47]: 100% | residual activity [3, 47]: 100% | residual activity [4, 47]: 76% | residual activity [5, 47]: 89% | residual activity [6, 47]: 100% | residual activity [7, 47]: 96% | residual activity [8, 47]: 100% | residual activity [9, 47]: 86% | residual activity [10, 47]: 100% | residual activity [11, 47]: 99% | residual activity [12, 47]: 81% | residual activity [13, 47]: 98% | residual activity [14, 47]: 100% | residual activity [15, 47]: 86% | residual activity [16, 47]: 100% | residual activity [17, 47]: 100% | residual activity [18, 47]: 71% | residual activity [19, 47]: 100% | residual activity [20, 47]: 90% | residual activity [21, 47]: 100% | residual activity [22, 47]: 95% | residual activity [23, 47]: 76% | residual activity [24, 47]: 100% | residual activity [25, 47]: 82% | residual activity [26, 47]: 100% | residual activity [27, 47]: 100% | residual activity [28, 47]: 100% | residual activity [29, 47]: 92% | residual activity [30, 47]: 81% | residual activity [31, 47]: 100% | residual activity [32, 47]: 89% | residual activity [33, 47]: 100% | residual activity [34, 47]: 100% | residual activity [35, 47]: 76% | residual activity [36, 47]: 100% | residual activity [37, 47]: 100% | residual activity [38, 47]: 100% | residual activity [39, 47]: 99% | residual activity [40, 47]: 100% | residual activity [41, 47]: 92% | residual activity [42, 47]: 100% | residual activity [43, 47]: 100% | inhibition [44]: 9.82% | inhibition [45]: 24.3%
